# Assays:
# [1] = tested on: cytopathic effect of HIV: LAV-1-infected CEM cells / Molt4 (clone 8) cells; test: Inhibitory effect on the cytopathic effect of HIV (syncytium/giant cell formation); format: cell-based, human immunodeficiency virus (LAV-1)
# Protocol: The inhibitory effect of the compound (I) on the cytopathic effect (syncytium formation) by HIV infection on T lymphocytes was evaluated in the following manner.
# (1) CEM cells infected with LAV-1 were washed twice with RPMI 1640 medium and a cell suspension (1 × 10^6 cells/ml) was prepared using the same medium. The suspension was distributed in 100-μl portions into culture tubes (16 × 125 mm). Complete medium^*1 containing the compound (I) in several specified concentrations was added to the culture tubes and incubation was performed in the presence of 5% carbon dioxide a 37° C. for 3 days.
# The LAV-1-infected CEM cells thus cultured were washed twice with RPMI 1640 medium and then adjusted to 4 × 10^5 cells/ml with the complete medium.
# [*1: RPMI 1640 medium supplemented with 20% fetal calf serum, 2.5 mM glutamine, kanamycin (100 μg/ml) and penicillin G (100 units/ml)]
# (2) Molt4 (clone 8) cells were washed twice with RPMI 1640 medium and then adjusted to 2 × 10^6 cells/ml with the complete medium.
# (3) The LAV-1-infected CEM cell suspension in complete medium prepared in (1) and the Molt4 (clone 8) cell suspension in complete medium prepared in (2) were respectively distributed in 50-μl portions into 96 well flat bottomed tissue culture plate, followed by further addition of 50 μl of each solution of the compound (I) in complete medium to each well, which was, in advance, prepared to give a final concentration of compound (I) of 100 μg/ml, 50 μg/ml, 20 μg/ml or 10 μg/ml (the final volume in each well being 150 μl).
# (4) The above tissue culture plate was incubated at 37° C. in the presence of 5% carbon dioxide for 16 hours and then the giant cells resulting from cytopathic alteration of Molt4 (clone 8) cells were counted within the visual field of a microscope (magnification × 400).
# The compound (II) was also evaluated for the same inhibitory effect (the α isomer, i.e. the compound (II'), was selected as a representative of the compound (II)).
# Friend leukemia virus [2] = test: Inhibitory effect on the induction of splenomegaly by Friend leukemia virus in mice; format: in vivo, mouse (male C3H/HeN); settings: for Spleen weight / Inhibition: day 14; for Inhibition: percent inhibition of infection from spleen weight; for inhibition of splenomegaly in mice (in words): Friend leukemia virus
# Protocol: Male C3H/HeN mice (5 weeks old) were intraperitoneally inoculated with 3.1 × 10^1 MID50 /mouse of Friend leukemia virus (in 0.2 ml) and then, after this infection procedure, the active ingredient [compound (I) or compound (II)] of the present invention was administered at a specified dose in the form of a solution in sterile physiological saline by the route specified below (Experiment 1 or 2). On day 14 after infection, the mice were sacrificed by exsanguination and the spleen weight (in mg) was measured for evaluating the inhibitory effect of the compound (I) and (II) on the induction of splenomegaly. In each experiment, the control group consisted of mice given no active ingredient after infection with Friend leukemia virus. The percent inhibition of infection was calculated as follows: [formula] The compound (I) was intravenously administered 4 hours after infection (day 0) and then twice daily on days 1 to 4 and days 7 to 11 (19 times in total). The compound (II) was orally administered 1 hour after infection and then according to the same schedule as in Experiment 1. The compound (II) used was in the α form, namely the compound (II'). Friend leukemia virus used in the above test is known to be a lymphotropic retrovirous, like HIV. Since the extent of splenomegaly in mice induced by said virus is proportional to the proliferation of said virus, the inhibitory effect of an agent on the proliferation of Friend leukemia virus can be estimated by assaying its inhibitory effect on the splenomegaly in mice.
# [3] = tested on: Type II collagen-induced arthritis; test: Type II collagen-induced arthritis in rats; format: in vivo, rat (female Lewis); settings: oral, means ± SEM
# Protocol: (2R, 3S, 4R, 5R)-3,4-dihydroxy-5-hydroxymethyl-2-pyrrolidinesufonic acid (compound (II'))
# Inbred 7-week-old female Lewis rats were handled under specific pathogen-free conditions and acclimated to the new environment for a week before use.
# Type II bovine collagen was dissolved at 4° C. in 0.01M acetic acid at a concentration of 2 mg/ml. The solution was emulsified in an equal volume of incomplete Freund's adjuvant. Rats were anesthetized with sodium pentobarbital (30 mg/kg, i.p.) and the backs of rats were shaved. Under anesthesia, each rat was immunized with 0.8 ml of the cold emulsion by several intradermal injections on the depilated back and one or two injections into the base of the tail.
# The test compound was dissolved in distilled water and administered orally at various doses in 5 ml/kg. From the day of immunization, the test compound or vehicle was administered once a day for 2 weeks.
# The extent of arthritis was expressed as the increase in paw volume of each rat. The volume of both hind legs below the knee joint was measured with a plethysmometer. The rats were immunized on day 0 and the paw volume was measured on day 12 and 14. Mean increases in the paw volume of each group was calculated and the result was expressed as means ± SEM. Each group consisted of 10 rats.
# [4] = Acute toxicity testing in mice; format: in vivo, mouse (ddY, female)
# Protocol: The compound (I) was administered to mice (ddY strain, female, 5 weeks old) at a dose of 1 g per kg body weight by intravenous injection.
# Friend leukemia virus [5] = test: Inhibitory effect on the induction of splenomegaly by Friend leukemia virus in mice; format: in vivo, mouse (male C3H/HeN); settings: combination with azidothymidine (AZT); no data given
# α-glucosidase = settings: stated without data; cited from earlier work
# [6] = tested on: immunosuppressive factors; settings: stated without data; cited from earlier work
# [7] = Stability and hygroscopicity; format: physicochemical; settings: compared with the pyrroline compound (I)
# inflammation = test: Anti-inflammatory activity (general statement); settings: stated in words
compound,measurement,setting,value
"O=S(=O)(O)[C@H]1N[C@H](CO)[C@@H](O)[C@@H]1O [Compound (II'), (2R, 3S, 4R, 5R)-3,4-dihydroxy-5-hydroxymethyl-2-pyrrolidinesulfonic acid]",Number of giant cells,"[1]; compound (II') 1 μg/ml, control (0 μg/ml) 173.0 ± 2.0, mean ± SD",119.5 ± 16.5
same,Number of giant cells,"[1]; compound (II') 3 μg/ml, control (0 μg/ml) 173.0 ± 2.0, mean ± SD",106.0 ± 19
same,Number of giant cells,"[1]; compound (II') 10 μg/ml, control (0 μg/ml) 173.0 ± 2.0, mean ± SD",89.0 ± 10
same,Number of giant cells,"[1]; compound (II') 30 μg/ml, control (0 μg/ml) 173.0 ± 2.0, mean ± SD",53.5 ± 8.5
same,Number of giant cells,"[1]; compound (II') 100 μg/ml, control (0 μg/ml) 173.0 ± 2.0, mean ± SD",26.5 ± 3.5
same,Spleen weight,"Friend leukemia virus [2]; oral, 10 mg/kg/administration, first 1 hour after infection, control 1073 ± 26, normal 79 ± 2 mg, mean of 8 mice",875 ± 71 mg
same,Inhibition,"Friend leukemia virus [2]; oral, 10 mg/kg/administration, first 1 hour after infection",20%
same,Paw volume change,"[3]; 10 mg/kg once a day, 12 day, control 0.29 ± 0.13, normal 0.03 ± 0.07",0.16 ± 0.15 mL
same,Paw volume change,"[3]; 10 mg/kg once a day, 14 day, control 0.41 ± 0.24, normal 0.05 ± 0.03",0.27 ± 0.21 mL
same,Paw volume change,"[3]; 32 mg/kg once a day, 12 day, control 0.29 ± 0.13, normal 0.03 ± 0.07",0.13 ± 0.10 mL
same,Paw volume change,"[3]; 32 mg/kg once a day, 14 day, control 0.41 ± 0.24, normal 0.05 ± 0.03",0.19 ± 0.22 mL
same,Paw volume change,"[3]; 100 mg/kg once a day, 12 day, control 0.29 ± 0.13, normal 0.03 ± 0.07",0.08 ± 0.11 mL
same,Paw volume change,"[3]; 100 mg/kg once a day, 14 day, control 0.41 ± 0.24, normal 0.05 ± 0.03",0.06 ± 0.04 mL
"OC[C@H]1N=C[C@@H](O)[C@@H]1O [Compound (I), (3R, 4R, 5R)-3,4-dihydroxy-5-hydroxymethyl-1-pyrroline]",Number of giant cells,"[1]; compound (I) 10 μg/ml, 16 h, control (0 μg/ml) 260.5, mean of two countings",246.5
same,Number of giant cells,"[1]; compound (I) 20 μg/ml, 16 h, control (0 μg/ml) 260.5, mean of two countings",147.5
same,Number of giant cells,"[1]; compound (I) 50 μg/ml, 16 h, control (0 μg/ml) 260.5, mean of two countings",44.5
same,Number of giant cells,"[1]; compound (I) 100 μg/ml, 16 h, control (0 μg/ml) 260.5, mean of two countings",9.5
same,inhibition of splenomegaly in mice (in words),Friend leukemia virus [2],can inhibit such splenomegally in mice
same,Spleen weight,"Friend leukemia virus [2]; intravenous, 20 mg/kg/administration, 19 times, control 1149 ± 220, normal 92 ± 3 mg, mean of 10 mice",840 ± 421 mg
same,Inhibition,"Friend leukemia virus [2]; intravenous, 20 mg/kg/administration, 19 times",29%
same,Spleen weight,"Friend leukemia virus [2]; intravenous, 80 mg/kg/administration, 19 times, control 1149 ± 220, normal 92 ± 3 mg, mean of 10 mice",667 ± 241 mg
same,Inhibition,"Friend leukemia virus [2]; intravenous, 80 mg/kg/administration, 19 times",46%
same,body weight,"[4]; 1 g per kg body weight, intravenous injection",body weight gains
same,survival,"[4]; mouse, in vivo, iv",The mice survived
same,potentiation of azidothymidine (AZT) in inhibiting splenomegaly in mice,Friend leukemia virus [5],can potentiate azidothymidine (AZT) in inhibiting such splenomegaly in mice
same,α-glucosidase inhibiting activity,α-glucosidase,α-glucosidase inhibiting activity
same,activity against immunosuppressive factors,[6],activity against immunosuppressive factors
O=S(=O)(O)C1N[C@H](CO)[C@@H](O)[C@@H]1O (some centres unmarked) [(II)],inhibition of splenomegaly in mice (in words),Friend leukemia virus [2],can inhibit such splenomegally in mice
same,hygroscopicity,[7],less hygroscopic than the pyrroline compound (I)
same,stability,[7],very stable
same,anti-inflammatory activity,inflammation,has anti-inflammatory activity
same,potentiation of azidothymidine (AZT) in inhibiting splenomegaly in mice,Friend leukemia virus [5],can potentiate azidothymidine (AZT) in inhibiting such splenomegaly in mice
